From publication PMC4393105, “tRNA^Glu Increases the Affinity of Glutamyl-tRNA Synthetase for Its Inhibitor Glutamyl-Sulfamoyl-Adenosine, an Analogue of the Aminoacylation Reaction Intermediate Glutamyl-AMP: Mechanistic and Evolutionary Implications” (PLoS ONE, 2015)
Where “and” joins values, the source holds several entries; their conditions need not be identical. Equal values may be shown once.

Biological target: T1, E. coli GluRS + E. coli tRNA^Glu (Escherichia coli, UniProt P04805)
T1 construct: His tag (histidine tag) (C); made in house
Test: Isothermal titration microcalorimetry of Glu-AMS binding to GluRS in the presence of tRNA^Glu
Details: for Kd: Kd = 1/Kb
Experimental: Overproduction and purification of E. coli GluRS were performed as previously described with the following modifications. A C-terminal histidine-tagged GluRS was used instead of the N-terminal tagged one. The overproduction was induced overnight at 30°C with 1 mM IPTG.
Overproduction and purification of E. coli tRNA^Glu-enriched total tRNA was done as described. […] Saccharomyces cerevisiae tRNA^Phe, used as a negative control, was purchased from Sigma-Aldrich (cat No: R4018).
The GluRS solution with or without tRNA was dialyzed overnight in a D-tube dialyzer (Novagen) against 2 L of dialysis buffer (50 mM HEPES-KOH, pH 7.2, 10 mM MgCl2) at 4°C with light stirring. The next morning, the dialyzed solution was recovered and the volume adjusted by adding dialysis buffer to obtain the desired concentration (typically 9 μM GluRS and 11 μM tRNA^Glu). This solution was kept on ice until use. Glu-AMS was diluted in the dialysis buffer to obtain a final concentration of 90 μM. All buffers and solutions were degased with stirring under vacuum. The microcalorimetry experiments were carried out in a VP-ITC 100 microcalorimeter (MicroCal, GE Healthcare) using deionized water as an internal reference for all assays. VPViewer ITC 2000 and Origin v 5.0 softwares (Microcal Software, Inc) were used for data collection and analysis, respectively.
To measure the thermodynamic parameters of the interaction between Glu-AMS and GluRS, in the presence and in the absence of tRNA, a solution containing 9 μM GluRS with or without a stoichiometric excess of tRNA^Glu or S. cerevisiae tRNA^Phe (Table 1) was placed in the sample cell of the microcalorimeter. The following conditions were used for all tests: reference power was set at 12 μcal/s and stirring at 300 rpm, the “high” feedback mode and “No check Temp”, “Fast Equil” and “Auto” ITC equilibration options were selected. […] After a first injection of 1 μL over 2 s, a series of 39 injections (7.4 μL over 14.8 s) with 240 s between injections was performed. Injections of Glu-AMS in GluRS alone, GluRS•tRNA^Glu or GluRS•tRNA^Phe, were performed at 30°C (303 K), and done in duplicate. Injections of Glu-AMS in GluRS were also performed at 20°C and 37°C (293 and 310 K): 14 injections (20 μL over 40 s) followed the first injection of 1 μL. Each temperature was tested in duplicate, and in triplicate at 37°C.
The following nomenclature was used to describe the interaction at equilibrium between Glu-AMS and either GluRS or a GluRS•tRNA complex: GluRS•Glu-AMS↔GluRS+[…] Kd=[GluRS]×[Glu-AMS]/[GluRS•Glu-AMS] 1/Kd=Kb (binding constant, sometimes referred to as Ka).

[1] = single ITC run, tRNA^Glu 5.3 µM, 303 K, [ligand] 45 µM, [GluRS] 2.636 µM
[2] = single ITC run, tRNA^Glu 10.6 µM, 303 K, [ligand] 90 µM, [GluRS] 5.792 µM
[3] = with E. coli tRNA^Glu, 30°C, weighted mean of ITC runs

T1 sequence (P04805 whole entry): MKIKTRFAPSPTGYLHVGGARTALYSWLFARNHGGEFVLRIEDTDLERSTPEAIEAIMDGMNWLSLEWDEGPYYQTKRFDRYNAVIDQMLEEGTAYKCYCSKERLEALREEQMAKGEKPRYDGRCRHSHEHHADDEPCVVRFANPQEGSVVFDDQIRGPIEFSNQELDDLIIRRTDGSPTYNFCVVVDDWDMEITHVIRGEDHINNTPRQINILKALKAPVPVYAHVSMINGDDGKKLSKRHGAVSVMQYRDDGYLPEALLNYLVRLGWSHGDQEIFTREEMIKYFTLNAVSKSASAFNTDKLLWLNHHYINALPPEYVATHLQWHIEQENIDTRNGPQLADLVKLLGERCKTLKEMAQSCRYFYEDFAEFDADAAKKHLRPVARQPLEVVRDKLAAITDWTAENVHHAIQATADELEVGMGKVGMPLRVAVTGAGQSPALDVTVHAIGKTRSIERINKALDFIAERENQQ

Nc1ncnc2c1ncn2[C@@H]1O[C@H](COS(=O)(=O)NC(=O)[C@@H](N)CCC(=O)O)[C@@H](O)[C@H]1O [Glu-AMS, 5’-O-[N-(L-glutamyl)sulfamoyl]adenosine]
Kd (K d aa-AMP aaRS, in the presence of tRNA^Glu): 7 nM
Kd (Kd (dissociation constant), single ITC run, tRNA^Glu 5.3 µM, 303 K, [ligand] 45 µM, [GluRS] 2.636 µM): 5.49 ± 1.35 nM
Kd (Kd (dissociation constant), single ITC run, tRNA^Glu 10.6 µM, 303 K, [ligand] 90 µM, [GluRS] 5.792 µM): 8.96 ± 2.26 nM
-TΔSb [1]: -2908 ± 33
n (stoichiometry coefficient) [1]: 1.004 ± 0.006
ΔGb (reaction energy) [1]: -11.452 kcal/mol
ΔHb (reaction enthalpy) [1]: -8.537 ± 0.097 kcal/mol
ΔSb (reaction entropy) [1]: 9.596 ± 0.11 cal/mol·K
-TΔSb [2]: -3548 ± 38
n (stoichiometry coefficient) [2]: 1.000 ± 0.006
ΔGb (reaction energy) [2]: -11.156 kcal/mol
ΔHb (reaction enthalpy) [2]: -7.61 ± 0.081 kcal/mol
ΔSb (reaction entropy) [2]: 11.71 ± 0.12 cal/mol·K
-TΔSb [3]: -3.186 ± 0.025 kcal/mol
n (stoichiometry coefficient) [3]: 1.0018 ± 0.0041
ΔHb (reaction enthalpy) [3]: -7.99 ± 0.062 kcal/mol
ΔSb (reaction entropy) [3]: 10.5 cal/mol·K and 10.52 ± 0.08 cal/mol·K
fold decrease of the dissociation constant Kd in the presence of tRNA^Glu (with versus without tRNA^Glu): 50 fold
free energy of binding difference observed in the presence of tRNA^Glu (with versus without tRNA^Glu, 30°C): about 2.2 kcal/mol
